Test: Cytotoxicity against human BEL-7402 cells after 72 hrs by SRB assay
Assay type: cell-based
Conditions: Bel-7402, 72 h

SMILES | IC50
C=C1C(=O)O[C@@H]2C/C(CO)=C\CC[C@@H](CO)C[C@@H](OC(=O)/C(C)=C\C)[C@@H]12 | 3000 nM
C=C(C)C(=O)O[C@@H]1C[C@H](CO)CC/C=C(/C=O)C[C@H]2OC(=O)C(=C)[C@H]12 | 1500 nM
C=C(C)C(=O)O[C@@H]1C[C@H](CO)CC/C=C(/CO)C[C@H]2OC(=O)C(=C)[C@H]12 | 1720 nM

Source: ChEMBL document CHEMBL1142102, “Cytotoxic germacrane-type sesquiterpenes, pimarane-type diterpenes, and a naphthalene derivative from Wollastonia biflora” (J Nat Prod, 2007)
